Test results reported in patent US6124323A, “4-substituted piperidine analogs and their use as subtype selective NMDA receptor antagonists” (Warner-Lambert Company, priority 1998, dated 2000).
Where a name gives a salt, the structure may show the parent alone.

Columns and labels:
[1] = target: T1, NMDA receptor subunits 1A/2B (Rattus norvegicus, UniProt P35439+Q00960); experiment: Electrophysiological assay at NMDA receptor subunits expressed in Xenopus oocytes, 1A/2B; format: cell-based; details: Xenopus oocytes; glutamate 100 μm and glycine 1-100 μm; read-out: Subunits IC50, 1A/2B
T1 construct: expressed in transfected cells; host or cells: Xenopus laevis oocytes (cRNA injection; clones from Dr. P. H. Seeburg)
T1 sequence (Q00960 27-1482, other chains not shown): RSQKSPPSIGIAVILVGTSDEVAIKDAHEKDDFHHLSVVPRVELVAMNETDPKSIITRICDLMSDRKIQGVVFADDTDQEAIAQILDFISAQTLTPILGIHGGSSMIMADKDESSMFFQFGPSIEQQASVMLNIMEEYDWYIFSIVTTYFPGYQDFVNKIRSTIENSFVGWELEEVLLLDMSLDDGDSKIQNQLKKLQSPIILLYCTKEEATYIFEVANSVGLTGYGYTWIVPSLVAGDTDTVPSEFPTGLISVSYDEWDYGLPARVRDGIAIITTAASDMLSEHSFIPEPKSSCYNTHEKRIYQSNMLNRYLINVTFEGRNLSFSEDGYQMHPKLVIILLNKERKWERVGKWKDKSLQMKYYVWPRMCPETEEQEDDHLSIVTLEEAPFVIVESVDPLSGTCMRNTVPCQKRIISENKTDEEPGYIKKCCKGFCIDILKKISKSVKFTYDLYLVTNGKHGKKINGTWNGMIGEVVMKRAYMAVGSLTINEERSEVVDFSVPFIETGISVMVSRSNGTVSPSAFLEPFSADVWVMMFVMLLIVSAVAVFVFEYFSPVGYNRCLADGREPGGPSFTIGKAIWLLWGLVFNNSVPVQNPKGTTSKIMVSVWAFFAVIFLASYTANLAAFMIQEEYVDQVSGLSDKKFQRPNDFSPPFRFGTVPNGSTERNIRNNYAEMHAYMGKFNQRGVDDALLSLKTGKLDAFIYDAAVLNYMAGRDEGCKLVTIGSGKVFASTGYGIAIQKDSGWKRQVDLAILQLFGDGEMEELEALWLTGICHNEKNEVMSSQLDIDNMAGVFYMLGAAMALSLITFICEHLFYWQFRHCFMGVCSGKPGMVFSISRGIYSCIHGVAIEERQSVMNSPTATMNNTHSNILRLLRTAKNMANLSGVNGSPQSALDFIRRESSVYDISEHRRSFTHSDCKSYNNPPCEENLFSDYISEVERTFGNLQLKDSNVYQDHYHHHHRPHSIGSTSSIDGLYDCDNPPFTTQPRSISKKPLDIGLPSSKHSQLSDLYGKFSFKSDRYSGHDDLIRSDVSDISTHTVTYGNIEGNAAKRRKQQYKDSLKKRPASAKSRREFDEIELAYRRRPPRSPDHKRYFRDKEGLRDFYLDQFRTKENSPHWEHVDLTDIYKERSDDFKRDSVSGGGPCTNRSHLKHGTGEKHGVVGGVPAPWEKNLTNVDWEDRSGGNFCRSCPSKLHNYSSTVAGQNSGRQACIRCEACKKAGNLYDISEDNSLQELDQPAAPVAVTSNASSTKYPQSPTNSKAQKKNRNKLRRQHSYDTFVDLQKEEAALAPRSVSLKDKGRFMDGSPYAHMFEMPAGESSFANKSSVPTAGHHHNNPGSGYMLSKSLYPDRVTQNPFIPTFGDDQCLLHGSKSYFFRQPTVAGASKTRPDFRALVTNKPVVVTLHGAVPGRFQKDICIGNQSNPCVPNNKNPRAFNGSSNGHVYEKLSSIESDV
Procedure, shortened: (§1)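 Two-electrode voltage clamp of Xenopus oocytes injected with rat NR1A plus NR2A, 2B or 2C cRNA (1:1), recorded 3–21 days post-injection in Ringer's, pH 7.4. Currents evoked by glutamate (100 μm) with glycine (1–100 μm); antagonist applied by bath perfusion at rising concentrations, IC50 from logistic fit or linear regression for incomplete curves.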

[2] = target: T2, NMDA receptor subunits 1A/2A (Rattus norvegicus, UniProt P35439+Q00959); experiment: Electrophysiological assay at NMDA receptor subunits expressed in Xenopus oocytes, 1A/2A; format: cell-based; details: glutamate 100 μm and glycine 1-100 μm
T2 construct: expressed in transfected cells; host or cells: Xenopus laevis oocytes (cRNA injection; clones from Dr. P. H. Seeburg)
T2 sequence (Q00959 20-1464 limits assumed, other chains not shown): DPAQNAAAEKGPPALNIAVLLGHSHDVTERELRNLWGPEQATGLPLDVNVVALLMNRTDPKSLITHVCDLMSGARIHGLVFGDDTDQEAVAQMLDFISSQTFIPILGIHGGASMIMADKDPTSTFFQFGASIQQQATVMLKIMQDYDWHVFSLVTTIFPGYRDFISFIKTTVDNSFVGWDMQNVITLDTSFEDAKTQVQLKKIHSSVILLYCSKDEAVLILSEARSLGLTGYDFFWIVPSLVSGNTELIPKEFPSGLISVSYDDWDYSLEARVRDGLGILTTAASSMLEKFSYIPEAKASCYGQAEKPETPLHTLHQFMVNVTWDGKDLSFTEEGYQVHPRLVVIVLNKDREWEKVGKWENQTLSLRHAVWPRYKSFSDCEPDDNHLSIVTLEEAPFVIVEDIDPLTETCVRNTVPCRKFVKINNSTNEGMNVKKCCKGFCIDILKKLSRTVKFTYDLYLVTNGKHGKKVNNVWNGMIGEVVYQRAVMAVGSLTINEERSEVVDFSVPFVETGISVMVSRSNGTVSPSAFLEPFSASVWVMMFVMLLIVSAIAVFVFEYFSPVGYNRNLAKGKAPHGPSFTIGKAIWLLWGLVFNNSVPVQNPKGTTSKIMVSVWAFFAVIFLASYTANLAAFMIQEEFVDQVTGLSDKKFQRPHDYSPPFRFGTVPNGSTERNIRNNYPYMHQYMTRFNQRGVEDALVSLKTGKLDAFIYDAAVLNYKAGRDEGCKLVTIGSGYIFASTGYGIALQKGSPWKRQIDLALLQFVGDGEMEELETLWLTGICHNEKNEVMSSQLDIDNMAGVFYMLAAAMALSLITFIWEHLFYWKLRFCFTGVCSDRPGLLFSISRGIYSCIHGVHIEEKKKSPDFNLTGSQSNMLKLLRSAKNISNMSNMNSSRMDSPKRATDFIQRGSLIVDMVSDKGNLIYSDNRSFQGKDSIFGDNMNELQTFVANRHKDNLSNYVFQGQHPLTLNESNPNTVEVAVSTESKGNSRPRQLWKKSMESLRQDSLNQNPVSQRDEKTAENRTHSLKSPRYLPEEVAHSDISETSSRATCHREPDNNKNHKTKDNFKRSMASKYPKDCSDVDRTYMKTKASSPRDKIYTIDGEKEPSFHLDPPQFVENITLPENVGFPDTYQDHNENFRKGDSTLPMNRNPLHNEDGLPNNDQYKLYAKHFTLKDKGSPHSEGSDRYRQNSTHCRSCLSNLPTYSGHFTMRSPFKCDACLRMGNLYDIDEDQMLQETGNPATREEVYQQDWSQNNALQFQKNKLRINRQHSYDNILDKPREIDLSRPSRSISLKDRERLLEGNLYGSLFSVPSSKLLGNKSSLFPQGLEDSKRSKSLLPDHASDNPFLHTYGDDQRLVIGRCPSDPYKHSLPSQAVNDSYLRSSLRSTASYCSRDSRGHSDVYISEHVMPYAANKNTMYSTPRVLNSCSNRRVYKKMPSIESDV
Procedure: Many of the properties of native NMDA receptors are seen in recombinant homomeric NR1 receptors. These properties are altered by the NR2 subunits. Recombinant NMDA receptors expressed in Xenopus oocytes have been studied by voltage-clamp recording, as has developmental and regional expression of the mRNAs encoding NMDA receptor subunits. Electrophysiological assays were utilized to characterize the actions of compounds at NMDA receptors expressed in Xenopus oocytes. The compounds were assayed at four subunit combinations of cloned rat NMDA receptors, corresponding to three putative NMDA receptor subtypes [Moriyoshi, et al. Nature 1991, 354, 31-37; Monyer et al, Science 1992, 256, 1217-1221; Kutsuwada et al, Nature 1992, 358, 36-41; Sugihara et al, Biochem. Biophys Res. Commun. 1992, 185, 826-832].
Electrophysiological Assays at NMDA Receptor Subunits
Preparation of RNA. cDNA clones encoding the NR1A, NR2A, NR2B, NR2C and NR2D rat NMDA receptor subtypes were provided by Dr. P. H. Seeburg (see, Moriyoshi et al., Nature (Lond.) 354:31-37 (1991); Kutsuwada et al., Nature (Lond.) 358:36-41 (1992) Monyer et al., Science (Washington, D.C.) 256:1217-1221 (1992); Ikeda et al., FEBS Lett. 313:34-38 (1992); Ishii et al., J. Biol. Chem. 268:2836-2843 (1993) for details of these clones or their mouse homologs). The clones were transformed into appropriate host bacteria and plasmid preparations were made with conventional DNA purification techniques. A sample of each clone was linearized by restriction enzyme digestion and cRNA was synthesized with T3 RNA polymerase. The cRNA was diluted to 400 ng/μl and stored in 1 μl aliquots at -80° C. until injection.
The Xenopus oocyte expression system. Mature female Xenopus laevis were anaesthetized (20-40 min) using 0.15% 3-aminobenzoic acid ethyl ester (MS-222) and 2-4 ovarian lobes were surgically removed. Oocytes at developmental stages IV-VI (Dumont, J. N., J. Morphol. 136:153-180 (1972)), were dissected from the ovary still surrounded by enveloping ovarian tissues. Follicle-enclosed oocytes were micro-injected with 1:1 mixtures of cRNA:NR1A+NR2A, 2B, 2C or 2D; injecting ~2,5, or 20 ng of RNA encoding each receptor subunit. NR1A encoding cRNA was injected alone at ~20 ng. Oocytes were stored in Barth's medium containing (in mM):NaCl, 88; KCl, 1; CaCl2, 0.41; Ca(NO3)2, 0.33; MgSO4, 0.82 NaHCO3, 2.4; HEPES 5, pH 7.4, with 0.1 mg/ml gentamicin sulphate. While oocytes were still surrounded by enveloping ovarian tissues the Barth's medium was supplemented with 0.1% bovine serum. Oocytes were defolliculated 1-2 days following injections by treatment with collagenase (0.5 mg/ml Sigma Type I for 0.5-1 hr) (Miledi and Woodward, J. Physiol. (Lond.) 416:601-621 (1989)) and subsequently stored in serum-free medium.
Electrical recordings were made using a conventional two-electrode voltage clamp (Dagan TEV-200) over periods ranging between 3-21 days following injection. (Woodward et al., Mol. Pharmacol. 41: 89-103 (1992)). Oocytes were placed in a 0.1 ml recording chamber continuously perfused (5-15 ml min^-1 ) with frog Ringer's solution containing (in mM):NaCl, 115; KCl, 2; CaCl2, 1.8; HEPES, 5; pH 7.4. Drugs were applied by bath perfusion. Using oocytes expressing different subunit combinations of NMDA receptor, NMDA currents were activated by co-application of glutamate (100 μm) and glycine (1-100 μm). Inhibitory potency of the novel antagonists was assessed on responses elicited by fixed concentrations of glutamate and glycine, by measuring reductions in current induced by progressively increasing concentrations of antagonist. Concentration-inhibition curves were fit with equation 1.
I/Icontrol =1/(1+([antagonist]/10^-pIC50)^n) Eq. 1
in which Icontrol is the current evoked by agonists alone, pIC50 =-log IC50, IC50 is the concentration of antagonist that produces half maximal inhibition, and n is the slope factor. (De Lean et al., Am. J. Physiol. 235:E97-102 (1978)). […]

[3] = tested on: Maximal Electroshock-induced Seizures; experiment: Maximal electroshock-induced seizures (MES); format: in vivo; details: Mus musculus; mice; 50 mA, 60 pulses/sec, 1 sec
Description: Seizures were induced by application of current (50 mA, 60 pulses/sec, 0.8 sec pulse width, 1 sec duration, d.c.) through saline-coated corneal electrodes using a Ugo Basile ECT device (Model 7801). […] A tonic seizure was defined as a hindlimb extension in excess of 90 degrees from the plane of the body.

[4] = target: T3, NMDA receptor subunits 1A/2C (Rattus norvegicus, UniProt P35439+Q00961); experiment: Electrophysiological assay at NMDA receptor subunits expressed in Xenopus oocytes, 1A/2C; format: cell-based; details: Xenopus oocytes; glutamate 100 μm and glycine 1-100 μm; read-out: Subunits IC50, 1A/2C
T3 construct: expressed in transfected cells; host or cells: Xenopus laevis oocytes (cRNA injection; clones from Dr. P. H. Seeburg)
T3 sequence (Q00961 20-1237, other chains not shown): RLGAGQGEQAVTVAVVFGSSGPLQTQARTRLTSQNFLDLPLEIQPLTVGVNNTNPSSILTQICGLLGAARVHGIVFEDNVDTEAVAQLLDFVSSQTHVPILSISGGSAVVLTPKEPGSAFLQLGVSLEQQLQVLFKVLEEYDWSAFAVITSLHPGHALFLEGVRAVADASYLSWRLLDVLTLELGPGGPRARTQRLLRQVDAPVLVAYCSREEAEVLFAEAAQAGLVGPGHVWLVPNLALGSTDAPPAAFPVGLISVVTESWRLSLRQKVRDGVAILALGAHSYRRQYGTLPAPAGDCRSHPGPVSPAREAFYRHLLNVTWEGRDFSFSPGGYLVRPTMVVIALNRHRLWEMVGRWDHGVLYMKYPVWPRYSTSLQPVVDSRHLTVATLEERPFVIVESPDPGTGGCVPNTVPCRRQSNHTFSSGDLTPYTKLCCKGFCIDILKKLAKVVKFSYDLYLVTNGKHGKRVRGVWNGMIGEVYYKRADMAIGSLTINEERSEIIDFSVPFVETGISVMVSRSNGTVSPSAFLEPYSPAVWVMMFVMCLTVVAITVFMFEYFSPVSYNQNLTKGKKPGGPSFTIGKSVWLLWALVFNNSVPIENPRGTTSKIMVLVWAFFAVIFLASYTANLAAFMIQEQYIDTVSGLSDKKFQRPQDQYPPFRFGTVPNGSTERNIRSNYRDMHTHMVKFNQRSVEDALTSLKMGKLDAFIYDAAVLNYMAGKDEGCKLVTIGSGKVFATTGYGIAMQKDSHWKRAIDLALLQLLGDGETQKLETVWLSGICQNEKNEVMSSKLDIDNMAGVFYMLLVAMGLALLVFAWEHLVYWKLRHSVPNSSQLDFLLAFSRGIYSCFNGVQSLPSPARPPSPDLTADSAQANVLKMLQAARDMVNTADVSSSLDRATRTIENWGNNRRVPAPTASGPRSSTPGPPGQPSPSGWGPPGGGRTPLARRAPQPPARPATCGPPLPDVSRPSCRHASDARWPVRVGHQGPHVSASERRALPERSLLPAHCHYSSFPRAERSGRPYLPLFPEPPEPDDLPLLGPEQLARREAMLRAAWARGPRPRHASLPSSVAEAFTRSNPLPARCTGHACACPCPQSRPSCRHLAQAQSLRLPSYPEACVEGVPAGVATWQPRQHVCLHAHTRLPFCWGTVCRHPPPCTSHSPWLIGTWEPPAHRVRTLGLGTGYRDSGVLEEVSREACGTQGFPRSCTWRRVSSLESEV
Procedure, shortened: as §1

SMILES | IC50 [1] | IC50 [2] | ED50 [3] | IC50 [4]
O=c1[nH]c2ccc(OCCN3CCC(Cc4ccccc4)CC3)cc2[nH]c1=O [Ex. 58, 4-Benzyl-1-[2-(2,3-dioxoquinoxalin-6-oxy)ethyl]piperidine] | 0.1 µM | 25 µM | 5.1 mg/kg | > 100 µM
O=c1[nH]c2ccc(OCCN3CCC(Cc4ccccc4)CC3)cc2[nH]1 [Ex. 59, 4-Benzyl-1-[2-(2-oxobenzimidazol-5-oxy)ethyl]piperidine] | 0.024 µM | 75 µM | 1 mg/kg | > 100 µM
O=[N+]([O-])c1ccccc1OCCN1CCC(Cc2ccc(Cl)cc2)CC1 [Ex. 73, 4-(4-Chlorobenzyl)-1-[2-(2-nitrophenoxy)ethyl]piperidine] | 8 µM | 30 µM | 8 mg/kg | 100 µM
Nc1ccccc1OCCN1CCC(Cc2ccc(Cl)cc2)CC1 [Ex. 74, 4-(4-Chlorobenzyl)-1-[2-(2-aminophenoxy)ethyl]piperidine] | 3 µM | 60 µM | 3.5 mg/kg | > 100 µM
O=c1[nH]c2cccc(OCCN3CCC(Cc4ccc(Cl)cc4)CC3)c2[nH]1 [Ex. 77, 4-(4-Chlorobenzyl)-1-[2-(2-oxobenzimidazol-4-oxy)ethyl]piperidine] | 0.11 µM | 50 µM | 6 mg/kg | > 100 µM
Cl.Oc1ccc(OCCN2CCC(Cc3ccccc3)CC2)cc1 [Ex. 99, 1-[2-(4-hydroxyphenoxy)ethyl]-4-benzylpiperidine hydrochloride] | 0.03 µM | > 300 µM | 2 mg/kg | > 300 µM
Oc1ccc(OCCN2CCC(Cc3ccc(Cl)cc3)CC2)cc1 [Ex. 101, hydrochloride] | 0.05 µM | 55 µM | 3 mg/kg | 240 µM
Oc1ccc(OCCN2CCC(Cc3ccc(F)cc3)CC2)cc1 [Ex. 102, 1-[2-(4-Hydroxyphenoxy)ethyl]-4-(4-fluorobenzyl)piperidine hydrochloride] | 0.02 µM | 60 µM | 3 mg/kg | 290 µM
Fc1ccc(OCCN2CCC(Cc3ccccc3)CC2)cc1 [Ex. 103, 4-Benzyl-1-(2-(4-fluorophenoxy)ethyl)piperidine hydrochloride] | 1 µM | 95 µM | 3 mg/kg | > 300 µM
Oc1ccc(CC2CCN(CCOc3ccc(F)cc3)CC2)cc1 [Ex. 104] | 0.2 µM | 50 µM | 3 mg/kg | > 300 µM
Oc1ccc(OCCN2CCC(Cc3cccc(F)c3)CC2)cc1 [Ex. 112, 1-[2-(4-Hydroxyphenoxy)ethyl]-4-(3-fluorobenzylpiperidine hydrochloride] | 0.08 µM | 30 µM | 4.5 mg/kg | 280 µM
Cc1ccc(CC2CCN(CCOc3ccc(O)cc3)CC2)cc1 [Ex. 115, 1-[2-(4-Hydroxyphenoxy)ethyl]-4-(4-methylbenzyl)piperidine hydrochloride] | 0.03 µM | 75 µM | 0.7 mg/kg | 220 µM
